{"source": "patent US9345744B2", "about": "“Peptide-based collagen modulators for wound healing and tissue repair” (MUSC FOUNDATION FOR RESEARCH DEVELOPMENT, priority 2012, dated 2016)", "key": {"[1]": {"system": "Sprague Dawley rats, latissimus dorsi muscle", "test": "Silicon wafer implant with exogenous ATP or apyrase, histology at 24 hours", "type": "in vivo, rat", "details": "for inflammatory infiltrate in the implant region: implant plus exogenous agent", "source_text": "FIG. 16. A composite panel of microscopy images taken from H&E stained sections of muscle tissue adjacent to the silicon implant. […] The other images in the panel are high magnification showing areas of high inflammation and necrosis bottom two panels and relatively low inflammation away from the implant site, upper right. The top right set of images is from the tissue adjacent to the implant that had also been treated with exogenous ATP. […] And that by modulating the ATP signal we can potentially modulate the initial inflammatory reaction.\n15 male Sprague Dawley rats underwent unilateral implantation of silicon wafer implants. Three animals received implants only, three received implants plus exogenous ATP, three received implants plus exogenous apyrase, an enzyme that scavenges ATP, three underwent surgery alone without an implant, and three received a percutaneous injection of exogenous ATP into the latissimus dorsi muscle. The implants were harvested after 24 hours to evaluate the extent of inflammatory infiltrate and preservation of muscle."}, "HMVECs": {"system": "HMVECs", "test": "ATP release from endothelial cells", "type": "cell-based, human", "description": "FIG. 15. ATP is released from endothelial cells in response to low Ca^2+ and the inflammatory cytokine IL-6. HMVECs were treated for 5 hours with either nothing or IL-6 (0.01 ng/mL). After the 5 hr incubation, HBSS (w/Ca^2+ and Mg^2+)—25 mM HEPES was added to one set of controls (“Control”) and the IL-6 treated cells for 5 min. To the other set of control wells, HBSS (w/o Ca^2+ and Mg^2+)—25 mM HEPES was added as a positive control for Cx43 hemichannel-mediated ATP release (“Low Ca^2+”). The error bars represent the standard error for replicates within the same experiment.\nThe possibility that Cx43 acts as a mediator of inflammation through hemichannel mediated release of ATP was further examined Studies on ATP release in the HeLa cell models, as well as primary human microvascular endothelial cells (HMVECs), were performed. […] However, the inventors also observed that, in preliminary experiments, ATP released in response to low Ca^2+ was not inhibited by treatment with mefloquine, a commonly used connexin channel blocker. Endothelial cells may also release ATP through vesicular exocytotic mechanisms in a Ca^2+ dependent manner (Bodin and Burnstock, 2001; McDonald et al., 2010). Pannexin channels, which can also mediate ATP release, are similarly sensitive to mefloquine (Lohman et al., 2012; Bodin et al, 2001)."}, "[2]": {"details": "cited from earlier work"}, "[3]": {"system": "myocytes from neonatal rats", "details": "30 μM, 5 days; cited from earlier work"}, "ARPE19 cell": {"system": "ARPE19 cell", "details": "cited from earlier work"}, "[4]": {"system": "implants in skeletal muscle", "test": "Inflammatory infiltrate at implants, myeloperoxidase stain", "type": "in vivo", "details": "24 hour time point", "source_text": "In attempting to quantify the neutrophil infiltrate using a myeloperoxidase stain, the inventors observed that some of the cells stained darker than others. Upon further investigation, these cells were not neutrophils as but rather were macrophages."}, "[5]": {"system": "C57BL/6 mouse, laser-induced CNV", "details": "cited from earlier work"}, "C6 glioma cell line": {"system": "C6 glioma cell line", "details": "cited from earlier work"}, "[6]": {"system": "neonatal rat cardiac fibroblast cells", "test": "Western blot of collagen type I in conditioned media and cell lysates of peptide-treated neonatal cardiac fibroblasts", "type": "cell-based", "source_text": "Isolation and treatment of Neonatal Cardiac Fibroblasts with Cx43 based peptides (peptides used included ACT1, JM1, JM2, Antenapedia [ANT], reverse ACT1 [Rev], poly Arginine [poly r]). Neonatal cardiac fibroblasts (NHFs) were isolated from 3-4 day old rat hearts by collagenase digestion (100 U/mL) and differential attachment as previously described (Borg et al., 1984). All cells were maintained in Dulbecco's Modified Eagle Medium (DMEM) supplemented with 10% Fetal Bovine Serum and 100 U/mL penicillin G and 100 μg/mL streptomycin and used prior to passage four. For experiments, 40,000 NHFs were plated into the wells of a 24-well tissue culture plate and grown for 24-48 hours. On the day of treatment, media was removed from each well and replaced with fresh media containing 50 μg/mL L-ascorbic acid-2-phosphate; Sigma Chemical Co., St. Louis, Mo.). The appropriate volume of each peptide (resuspended in sterile, deionized 18 MΩ resistivity water) was added to achieve the desired final concentration (30, 90, 180 μM peptide concentrations were tested). Culture plates were incubated overnight in a 37° C. incubator with 5% CO2.\nConditioned culture media was collected from each well and stored at −20° C. for analysis of soluble collagen. Cellular protein, including insoluble collagen and collagen still within the NHFs, were isolated by adding 100-200 μL of cell lysis buffer (0.01 M Tris, pH 7.4, 0.001 M Sodium Orthovanadate, 1% sodium dodecylsulfate [SDS]) to each well and incubating 10 minutes at room temperature. Prior to addition, cell lysis buffer was warmed to facilitate solubilzation of SDS and 100 μL of Halt protease inhibitor (Pierce Biotechnology, Rockford, Ill.) was added per 10 mL buffer to be used. […] Protein concentrations of cell lysates were determined using a Micro BCA assay (Pierce). […] The presence of collagen was determined by probing the membranes with a rabbit anti-mouse collagen type I antibody (MD Biosciences) at 1:20,000 dilution in blocking buffer (5% milk in Tris-buffered saline) followed by a goat anti-rabbit IgG horseradish peroxidase conjugated antibody at 1:100,000 (Southern Biotech Associates) and detection with Pierce SuperSignal Femto West detection reagent (Pierce).\nTo assess the activity of JM1 and JM2 peptides with respect to collagen production and their potential in mediating wound healing, cardiac fibroblasts were treated with these two peptides and their effectiveness compared to that for the previous described Cx43 peptide ACT1. NHFs were treated with various concentrations of JM1, JM2, ACT1, and ANT (Antenapedia) peptides, vehicle (water) or left untreated and the production of collagen both in the culture media and cell-associated collagen assessed by western blotting. […]"}, "[7]": {"system": "neonatal mouse skin wound", "details": "cited from earlier work"}, "adult rat brain injury": {"system": "adult rat brain injury", "details": "100 μM in 2% collagen vehicle; cited from earlier work"}, "SD rat cornea": {"system": "SD rat cornea", "details": "cited from earlier work"}, "CD1 mice, LV cryo-injury": {"system": "CD1 mice, LV cryo-injury", "details": "cited from earlier work"}, "adult mouse skin wound": {"system": "adult mouse skin wound", "details": "cited from earlier work"}, "rat skin wound": {"system": "rat skin wound", "details": "cited from earlier work"}, "[8]": {"system": "Sprague-Dawley rats with silicone disks", "details": "cited from earlier work"}, "NIH-3T3 cells": {"system": "NIH-3T3 cells", "details": "30 μM, cited from earlier work"}, "Cx43 hemichannel": {"target": "T1, Cx43 hemichannel (Homo sapiens, UniProt P17302)", "T1 construct": "expressed in transfected cells", "T1 sequence (P17302 whole entry)": "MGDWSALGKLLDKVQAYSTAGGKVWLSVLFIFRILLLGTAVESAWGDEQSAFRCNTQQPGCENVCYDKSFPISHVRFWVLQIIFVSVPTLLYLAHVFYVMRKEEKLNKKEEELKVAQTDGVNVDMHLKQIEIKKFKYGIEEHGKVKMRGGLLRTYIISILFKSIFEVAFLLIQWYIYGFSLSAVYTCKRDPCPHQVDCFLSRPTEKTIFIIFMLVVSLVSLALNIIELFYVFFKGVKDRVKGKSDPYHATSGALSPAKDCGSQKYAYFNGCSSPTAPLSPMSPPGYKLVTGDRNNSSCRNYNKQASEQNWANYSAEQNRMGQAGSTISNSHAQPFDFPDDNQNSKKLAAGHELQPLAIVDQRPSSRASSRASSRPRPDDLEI", "details": "Rhett et al., 2011; cited from earlier work"}, "[9]": {"system": "U87 MG glioblastoma cells", "details": "cited from earlier work"}}, "note": "“Also recorded” adds a separate entry of the source. Where two headings read alike, the source gives them in different places.", "data": [{"molecule": "Nc1ncnc2c1ncn2[C@@H]1O[C@H](COP(=O)(O)OP(=O)(O)OP(=O)(O)O)[C@@H](O)[C@H]1O", "note": "[ATP]", "values": [{"measurement": "inflammatory infiltrate in the implant region", "setting": "[1]", "value": "profound increase in inflammatory infiltrate"}, {"measurement": "inflammatory infiltrate in skeletal muscle", "setting": "[1]; percutaneous injection, no implant", "value": "more inflammatory infiltrate than the surgery alone; also recorded: causes significant inflammation"}]}, {"molecule": "OC(c1cc(C(F)(F)F)nc2c(C(F)(F)F)cccc12)C1CCCCN1", "note": "(stereo not shown) [mefloquine]", "values": [{"measurement": "ATP released in response to low Ca2+", "setting": "HMVECs; treatment with blocker, preliminary experiments", "value": "not inhibited"}]}, {"molecule": "IL-6: the inflammatory cytokine IL-6", "values": [{"measurement": "ATP release", "setting": "HMVECs; IL-6 0.01 ng/mL, 5 hours", "value": "increased ATP release"}]}, {"molecule": "RQPKIWFPNRRKPWKKRPRPDDLEI [ACT1, Cx43 carboxyl-terminal peptide incorporating aas 373 to 382 of Cx43, U.S. Pat. No. 7,786,074]", "values": [{"measurement": "peptide in aqueous humor (anterior chamber)", "setting": "[2]; 100 uM, corneal application, 20 and 40 minutes", "value": "detectable level"}, {"measurement": "peptide in vitreous humor (posterior chamber), Western blotting", "setting": "[2]; 20 and 40 minutes", "value": "Lower levels of peptide could also be detected"}, {"measurement": "peptide in retinal pigment epithelial layer", "setting": "[2]; corneal application", "value": "detectable in the retinal pigment epithelial layer"}, {"measurement": "extent of Cx43 gap junction formation between myocytes", "setting": "[3]", "value": "greatly increased"}, {"measurement": "VEGF-dependent drop in TER", "setting": "ARPE19 cell; pre-treatment with peptide", "value": "ameliorated the drop in TER; also recorded: blocked"}, {"measurement": "primary inflammatory infiltrate", "setting": "[4]", "value": "macrophages"}, {"measurement": "CNV lesion size / injury spread", "setting": "[5]; relative to PBS controls", "value": "significantly reduced; also recorded: reduced CNV injury spread"}, {"measurement": "retinal function (ERG)", "setting": "[5]; relative to controls", "value": "improved retinal function"}, {"measurement": "motility across a porous membrane", "setting": "C6 glioma cell line; C6, Boyden chamber", "value": "significantly decreased"}, {"measurement": "adhesive properties", "setting": "C6 glioma cell line; C6", "value": "did not change"}, {"measurement": "cell morphology", "setting": "C6 glioma cell line; C6", "value": "altered morphology"}, {"measurement": "secretion/production of mature, fully processed type I collagen (conditioned media)", "setting": "[6]; 30, 90, 180 μM, overnight", "value": "decreased levels of fully processed collagen I a1 chains; also recorded: dose-dependent reduction"}, {"measurement": "higher molecular weight collagen species in cell lysate", "setting": "[6]; ACT1, highest doses of JM1 and JM2", "value": "absence of higher molecular weight collagen species"}, {"measurement": "mature / processed type I collagen in NHF cell lysate", "setting": "[6]; cell lysates, JM1, JM2 at maximum dose tested", "value": "slight decreases in processed collagen I a1 chains"}, {"measurement": "collagen synthesis, processing and secretion from fibroblasts", "setting": "[6]; cultured fibroblasts, FIGS. 1 and 2", "value": "reduced collagen processing and secretion"}, {"measurement": "wound closure, inflammation, swelling", "setting": "[7]; 60 μM in 20% pluronic gel, 48 hours", "value": "significantly more closed, less inflamed, less swollen"}, {"measurement": "wound appearance / scarring", "setting": "[7]; 60 μM, 7 days", "value": "smoother and less scarred appearance"}, {"measurement": "NeuN immunolabeled neurons proximal to the HFM", "setting": "adult rat brain injury", "value": "higher numbers"}, {"measurement": "density of GFAP-positive astrocytes adjacent the HFM", "setting": "adult rat brain injury", "value": "much lower density"}, {"measurement": "corneal re-epithelialization", "setting": "SD rat cornea; 24 hrs", "value": "re-epithelializing much faster than control corneas"}, {"measurement": "corneal re-epithelialization", "setting": "SD rat cornea; 72 hrs", "value": "significantly greater re-epithelialization"}, {"measurement": "corneal closure and regeneration", "setting": "SD rat cornea; rat, in vivo", "value": "faster closure and more complete corneal regeneration"}, {"measurement": "LV diastolic and systolic function", "setting": "CD1 mice, LV cryo-injury; 8 week time course", "value": "significant improvement"}, {"measurement": "scar uniformity", "setting": "CD1 mice, LV cryo-injury; mouse, in vivo", "value": "significantly increased scar uniformity"}, {"measurement": "frequency and severity of arrhythmias", "setting": "CD1 mice, LV cryo-injury; pacing and S1-S2 protocols", "value": "dramatically reduced"}, {"measurement": "closure, inflammation, healing and scarring of excisional injuries", "setting": "adult mouse skin wound; 100 μM in 30% pluronic gel, 10-14 day time course", "value": "closed faster, were less inflamed in appearance, healed faster and scarred less"}, {"measurement": "scarring/overall appearance", "setting": "adult mouse skin wound; 7 and 10 days post-wounding", "value": "significantly improved"}, {"measurement": "wound redness", "setting": "adult mouse skin wound; 24 hr and 4 days post-wounding", "value": "significantly decreased"}, {"measurement": "wound size", "setting": "adult mouse skin wound; 24 hr, 4, 7 and 10 days", "value": "significantly smaller in size"}, {"measurement": "scar area and scar tissue volume / scar size", "setting": "rat skin wound; 150 μM peptide, 30 days", "value": "significantly (p<0.05) smaller"}, {"measurement": "wound closure rates", "setting": "rat skin wound; versus the other 4 wounds", "value": "significantly faster closure rates"}, {"measurement": "neutrophil infiltration", "setting": "[8]; capsulectomies days 1-28", "value": "attenuating neutrophil infiltration"}, {"measurement": "presence of contractile myofibroblasts", "setting": "[8]; rat, in vivo", "value": "reducing the continued presence of contractile myofibroblasts"}, {"measurement": "type I collagen deposition around the implant", "setting": "[8]; rat, in vivo", "value": "reducing type I collagen deposition around the implant"}, {"measurement": "vascularity of the capsule tissue", "setting": "[8]; rat, in vivo", "value": "increasing vascularity of the capsule tissue"}, {"measurement": "repopulation of scratch injury", "setting": "NIH-3T3 cells; 24 hours", "value": "few cells repopulating the area"}, {"measurement": "proliferation of the cells", "setting": "NIH-3T3 cells", "value": "reduced proliferation"}, {"measurement": "Cx43 hemichannel activity", "setting": "Cx43 hemichannel", "value": "inhibits Cx43 hemichannel activity"}, {"measurement": "motility across a porous membrane", "setting": "[9]; Boyden chamber", "value": "significantly decreased"}, {"measurement": "aggregation", "setting": "[9]", "value": "higher degree of aggregation"}]}, {"molecule": "VEGF", "values": [{"measurement": "TER", "setting": "ARPE19 cell; VEGF alone, by 4 hours post-application", "value": "significantly (p<0.05) reduces TER; also recorded: rapid deterioration"}]}, {"molecule": "apyrase", "values": [{"measurement": "inflammatory infiltrate in the implant region", "setting": "[1]", "value": "significantly reduced the inflammatory infiltrate; also recorded: marked decrease in inflammatory infiltrate"}]}]}
